Experimental findings from patent US10383910B2, “Methods of increasing fertility of a male subject with costus speciosus extract” (priority 2016, dated 2019) are described below.

One data set relates to testes. Kind of data set: testes weights of rats after 90 days of treatment. The format is in vivo, rat. The following applies: vs control group GI. On the procedure: (§1) Statistical analyses were performed using SPSS software version 21.00. One-way analysis of variance (ANOVA), post-hoc and least significant difference (LSD) were performed for intergroup comparisons. P>0.05, P≤0.05, and P≤0.001 were considered non-significant, significant, and highly significant, respectively.

Data set [1] in a line: plasma levels of testosterone of rats after 90 days of treatment. Type of data set: in vivo, rat. On the procedure:
as §1

Data set [2] in a line: body weights of rats after 90 days of treatment. The format is in vivo, rat. On the procedure:
as §1

A further data set deals with testis of the rats. The data set can be described thus: histological examination of the rat testis (light microscopy, hematoxylin-eosin). As to conditions: 90 days.
Where [3] appears, read: GV: risperidone high dose 2 mg/kg/day oral.

The structures appear in SMILES notation.

Procedure for testis of the rats: The experiments in the Examples were conducted on 30 male albino rats of the Wister strain with an age range of 40-45 days (approximately 6 weeks) and a weight range of 68-122 g. […] The rats were provided feed and water, and bred in a private room with a temperature of 24±2° C., a relative humidity of 55±5%, and a 12-hour light/12-hour dark cycle.
The first treatment group (GI) was a control treatment group composed of 5 rats that were given distilled water orally throughout the experiment.
The second treatment group (GII) was composed of 5 rats that were orally administered with only the root extract of Costus speciosus at a dose of 2 mg/kg body weight/day.
The third treatment group (GIII) was composed of 5 rats that were orally administered with risperidone at a low dose of 1 mg/kg body weight/day.
The fourth treatment group (GIV) was composed of 5 rats that were orally administered with both risperidone at the low dose of 1 mg/kg body weight/day and the root extract of Costus speciosus at 2 mg/kg body weight/day.
The fifth treatment group (GV) was composed of 5 rats that were orally administered with risperidone at a high dose of 2 mg/kg body weight/day.
The sixth treatment group (GVI) was composed of 5 rats that were orally administered with both the high dose of risperidone at 2 mg/kg body weight/day and the root extract of Costus speciosus at 2 mg/kg body weight/day. […]

For the compound `Cc1nc2n(c(=O)c1CCN1CCC(c3noc4cc(F)ccc34)CC1)CCCC2` [risperidone, Risperidone], the testes weight result with testes (GIII: risperidone low dose 1 mg/kg/day oral) and in the data set on testes (setting [3]) was “insignificant reduction in testes weight” in each case. Further, the “plasma level of testosterone” value was “insignificant reduction in the plasma level of testosterone” in data set [1] (GIII: risperidone low dose 1 mg/kg/day oral, vs GIV (low dose + root extract)) and “insignificant reduction in the plasma level of testosterone” in data set [1] (GV: risperidone high dose 2 mg/kg/day oral, vs GVI (high dose + root extract)). In addition, the body weight entry in data set [2] (GIII: risperidone low dose 1 mg/kg/day oral, vs GI or GII) is given as “significant increase in body weight”; in data set [2] (GV: risperidone high dose 2 mg/kg/day oral, vs GIII (low dose risperidone)) it was “significant increase in body weight”. Moreover, the “histological findings in the testis” value in the data set on testis of the rats (GIII: risperidone low dose 1 mg/kg/day oral, vs GI) was “abnormal, disorganized, and atrophied seminiferous tubules (ST), disorganization of germinal epithelium, a loss of spermatogenic cell types (pointed by arrows), and a massive and wide-spread destruction of germ cells”; in the data set on testis of the rats (setting [3]), “degeneration of the germinal epithelium lining (arrowheads), vacuolation of seminiferous tubules (ST) (*), and intertubular oedema”.
